Tests used:
[1] = acidic counter-ion; cited from earlier work
[2] = Preliminary miscibility assays on the free base in selected solvents; assay type: physicochemical; conditions: for Miscibility: number of volumes needed to dissolve the oil at room temperature
Excerpt: Preliminary Miscibility Assays on (R)-9-(2,5-difluorophenethyl)-4-ethyl-2-methyl-1-oxa-4,9-diazaspiro[5.5]undecan-3-One Free Base

In the case of `Br` [Hydrobromic acid], the pKa1 [1] is given as −6.

For `O=C(O)[C@@H](O)c1ccccc1` [(S)-(+)-Mandelic acid], the pKa1 [1] is listed as 3.4.

In the case of `CCN1CC2(CCN(CCc3cc(F)ccc3F)CC2)O[C@H](C)C1=O` [(R)-9-(2,5-difluorophenethyl)-4-ethyl-2-methyl-1-oxa-4,9-diazaspiro[5.5]undecan-3-one], the “miscibility of the oil with the solvents tested” value ([2]; room temperature, all the solvents tested (Table 2)) is reported as “freely miscible”, the Miscibility ([2]; solvent H2O) is reported as 10 V and the Miscibility ([2]; solvent IPA (isopropanol)) is reported as 10 V. For the same molecule, the Miscibility ([2]; solvent MIK (methyl isobutyl ketone)) was 10 V, the Miscibility ([2]; solvent THF (tetrahydrofuran)) was 10 V and the Miscibility ([2]; solvent Toluene) was 10 V.

For `O=[N+]([O-])O` [Nitric acid], the pKa1 [1] is given as −1.4.
